In data set [1] the test system is VASA-GFP+ population of human ES cells (H9, HSF1). Briefly: VASA-GFP reporter FACS of differentiated human ES cells (Example 1). In kind it is cell-based. The following applies: XX line (H9), 14 days. As for the experimental part: 2.5 kb of human VASA upstream of the first codon was cloned into pENTR 5′-TOPO. EGFP was fused 1 kb downstream of the last codon of human VASA, and cloned into pENTR/D-TOPO. Cloned plasmids were recombined (Suter, D. M. et al. (2006) Stem Cells 24, 615-623) to create pLVGV. Lentiviral supernatant was produced, human ES cells were transduced overnight on matrigel in conditioned medium and subsequently selected with geneticin ([…]) for 7 days. Selected human ES cells were differentiated for the times indicated and harvested by brief treatment with collagenase IV and then TrypLEExpress (Invitrogen). The cell suspension was prepared in differentiation medium for FACS with a MoFlow or BD cell sorter.
Four human ES cell lines were used in this study: HSF1 (XY), HSF6 (XX), H1 (XY) and H9 (XX). Undifferentiated cultures of human ES cells were maintained on irradiated MEFs as previously described in Kee, K. et al (2006) Stem Cells Dev. 15: 831-837. Briefly, all cultures were grown at 37° C. with 5% CO2 in knockout serum replacer (KSR) plus bFGF medium (knockout DMEM, supplemented with 20% knockout serum replacer, 1 mM L-glutamine, 0.1 mM nonessential amino acids, 0.1 mM 2-mercaptoethanol, and 4 ng ml^−1 recombinant human bFGF (bFGF, R&D systems)). […]

The test system of the next data set is DAZL and VASA. The experiment in a line: Western blot of DAZL and VASA in human ES cells after silencing/overexpression. The following applies: human ES cells differentiated 14 days with BMPs. In kind it is cell-based. As for the experimental part: (§1) To collect the adherently differentiated cells, cells were washed with 3 ml cold PBS without Ca^2+ and Mg^2+, then scraped from the plate in 1 ml PBS plus 2× protease inhibitors (Complete Mini, Roche) and transferred immediately to a 1.5-ml tube on ice. The PBS cell suspension was then spun at 5,000 r.p.m. in a microcentrifuge for 3 min and the supernatant was discarded. The cell pellet was resuspended with 200 ul RIPA buffer (50 mM Tris, 150 mM NaCl, 0.5% sodium deoxycholate, 1% NP-40, 0.1% SDS, pH 8) plus 2× protease inhibitors (Complete Mini, Roche). The cell pellet suspension was pipetted rigorously at least 10 times, then vortexed for 30 sec. The suspension was again spun down for 3 min at the same speed. The supernatant was measured for protein concentration and denatured at a 1:1 ratio with 2× Laemmli buffer at 95° C. for 5 min, then loaded onto either a 10% or 12% SDS-PAGE gel. The SDS-PAGE gels were run at 150 V for 1 h and transferred to a PVDF membrane for 1 h at 100 V in CAPS buffer (10 mM CAPS, 10% methanol, pH 11). Transferred blots were blocked in 5% non-fat milk for 1 h at room temperature. […]
A general note: A western blot detects proteins with antibodies after separation by electrophoresis.

For a further data set, the system named is DAZL. The experiment in a line: shRNA silencing of DAZL-V5 / DAZL:GFP cotransfected in 293T cells. The format is cell-based, human. As for the experimental part:
as §1

In the case of “shDAZL4: shRNA 5′-GCAGAAGATAGTAGAATCACA-3′, SEQ ID NO: 27”, in data set [1], the “VASA-GFP+ population” value is listed as “reduced”. Moreover, in the data set with DAZL and VASA, the “Expression of DAZL and VASA” value was “significantly reduced”. In addition, in the data set with DAZL, the “Silencing of DAZL:GFP fusion protein” value is listed as “most effective silencer for DAZL”.

These data come from patent publication US9920300B2, “Induction of germ cells from pluripotent cells” (The Board of Trustees of the Leland Stanford Junior …, priority 2009, dated 2018).
